Test results from patent US20040023884A1, “Biologically active peptides from functional domains of bactericidal/permeability-increasing protein and uses thereof” (priority 1993, published 2004).
Ends that are not written are not given here.

Columns and labels:
[1] = Binding of [125I]-RaLPS to peptides pre-bound to HUVEC cells; assay type: cell-based, human; details: 1 μg/mL or 3 μg/mL peptide
Protocol: In a third binding assay, a number of BPI functional domain peptides were tested for their ability to bind to radiolabeled LPS following incubation with human endothelial cells (HUVEC). This assay measures the ability to bind LPS once the BPI peptides are bound to HUVEC cells. HUVEC cells were incubated in the presence of various BPI peptides at a concentration of either 1 μg/mL or 3 μg/mL for 3 hr at 4° C. in 500 μL of a solution of D-PBS/BSA. Following this incubation, the cells were washed twice with ice-cold D-PBS/BSA and then incubated for an additional 2.5 hr at 4° C. in 500 μL of a solution of [^125I]-RaLPS (a total of 340,000 cpm at a specific activity of 4.6×10^6 cpm/μg) in D-PBS/BSA. The wells were washed three times with D-PBS/BSA, solubilized in 500 μL of 1M NaOH and the lysates counted using a gamma counter.

[2] = tested on: Candida albicans; assay type: cell-based; details: broth assay, FIGS. 11p and 11q
Protocol: (§1) In additional experiments, broth antibacterial assays were conducted to further determine the bactericidal activity of certain of the BPI peptides. Specifically, either E. coli J5 (rough) or E. coli 0111:B4 (smooth) bacteria were selected from single colonies on agar plates and used to inoculate 5 mL of Mueller Hinton broth and incubated overnight at 37° C. with shaking. The overnight culture was diluted (˜1:50) into 5 mL fresh broth and incubated at 37° C. to log phase (˜3 hours). Bacteria were pelleted for 5 minutes at 3000 rpm (1500×g). Bacterial pellets were resuspended in 5 mL PBS and diluted to 2×10^6 cells/mL in the Mueller Hinton broth (wherein 1 OD570 unit equals 1.25×10^9 CFU/mL). The BPI functional domain peptides to be tested were diluted to 200 μg/mL in broth and serially diluted 2-fold in 96 well culture plates (100 μL volume). All items were at 2-fold final concentration and experiments were conducted in triplicate. Bacteria were added at 100 μL/well and the plates were incubated on a shaker at 37° C. for a 20 hour period. The plates were then read on an ELISA plate multiple reader at 590 nm. One of the triplicate wells from each peptide concentration was selected for colony forming unit (CFU) determination. A 30 μL aliquot was added to 270 μL of PBS and further ten-fold serial dilutions were performed. Then a 50 μL aliquot was plated on tryptic soy agar and incubated overnight. Colonies were counted and final bacterial concentrations determined. The results of these assays are depicted in FIGS. 9e (for E. coli J5) and 9f (for E. coli 0111:B4).
In light of the results of the experiments disclosed in Example 15, the bactericidal activity of domain II-domain III combination peptides were compared with the bactericidal activity of each of the component BPI domain II and domain III peptides, against a number of different bacteria and other microorganisms. The following BPI functional domain peptides as described above were used in radial diffusion bactericidal assays (Example 2) and broth bactericidal assays (Example 13) essentially as described in Example 15 above. These Figures show results of bactericidal assays using the following bacterial strains: […]

[3] = tested on: C. albicans; test: Radial diffusion fungicidal assay, Candida albicans; assay type: cell-based; details: radial diffusion
[4] = tested on: L-form of S. aureus ATCC 19640; test: Activity against L-forms of gram-positive bacteria; assay type: cell-based
Protocol: The bactericidal capacity of BPI peptides provided by the invention was also tested against Gram-positive bacteria (See Table VIII A). […] In addition, peptides were tested for their activity against L-forms of gram-positive bacteria, such as the L-form of S. aureus ATCC 19640.

[5] = tested on: E. coli O75; test: Radial diffusion bactericidal assay, E. coli O75; assay type: cell-based; details: FIG. 11d; up to about 2000 pmol
[6] = tested on: E. coli O18:K1:H7; test: Radial diffusion bactericidal assay, E. coli O18:K1:H7; assay type: cell-based; details: FIG. 11b; up to about 2000 pmol
[7] = tested on: Pseudomonas aeruginosa; test: Radial diffusion bactericidal assay, Pseudomonas aeruginosa; assay type: cell-based; details: FIG. 11a; up to about 2000 pmol
[8] = tested on: Klebsiella pneumoniae 19645; test: Radial diffusion bactericidal assay, antibiotic resistant Klebsiella pneumoniae 19645; assay type: cell-based
Protocol: These studies were conducted substantially following the procedures used in Example 2.
In order to test the bactericidal activity of BPI peptides on antibiotic resistant strains of Klebsiella pneumoniae, the multi-resistant clinically isolated strain 19645 was tested as in Example 2 and above. […] This strain was obtained from the Baxter Microscan® library (Sacramento, Calif.). An overnight culture of Klebsiella pneumoniae 19645 and a non-resistant strain (ATCC 29011) were diluted 1:50 into fresh tryptic soy broth and incubated for 3 hours at 37° C. to attain log phase. The overnight cultures were tested as described in Example 2 and part A above.

[9] = tested on: ATIII/heparin complexes; test: Thrombin inactivation by ATIII/heparin complexes (Chromostrate anti-thrombin assay); assay type: biochemical; details: 1.0 to 100 μg/mL
Protocol: BPI functional domain peptides BPI.2, BPI.3, BPI.4, BPI.5, BPI.6, and BPI.8, along with rBPI23 as a positive control, were assayed for their effect on thrombin inactivation by ATIII/heparin complexes according to the method of Example 3 in copending and co-assigned U.S. patent application Ser. No. 08/093,202, filed Jul. 15, 1993, incorporated by reference. Specifically, a Chromostrate™ anti-thrombin assay kit (Organon Teknika Corp., Durham, N.C.) was used to examine the inhibition of purified thrombin by preformed ATIII/heparin complexes in plasma.
Briefly, the assay was performed in 96 well microtiter plates in triplicate with a final volume per well of 200 μL. Varying concentrations of the BPI functional domain peptides ranging from 1.0 μg/mL to 100 μg/mL were assayed to determine their effect on thrombin inhibition in the presence of pre-formed ATIII/heparin complexes. The order of addition of assay components was as follows: 1) a dilution series of rBPI23 or BPI functional domain peptides or thaumatin as a control protein, with final concentrations of 100, 50, 25, 10 and 1 μg/well, diluted in PBS in a final volume of 50 μL; 2) 50 μL plasma diluted 1:100 in a buffer supplied by the manufacturer, 3) 50 μl thrombin at 1 nKat/mL in a buffer supplied by the manufacturer, and 4) 50 μL chromogenic substrate at a concentration of 1 μmol/mL in water. The reaction was allowed to proceed for 10 minutes at 37° C. and stopped with the addition of 50 μL 0.1M citric acid. The colorimetric reaction was quantitated on a microplate reader as described in Example 3.

[10] = tested on: E. coli J5 (rough); test: Broth antibacterial assay, E. coli J5; assay type: cell-based
Protocol: as §1

[11] = tested on: E. coli 0111:B4 (smooth); test: Broth antibacterial assay, E. coli 0111:B4; assay type: cell-based
Protocol: as §1

**Q.** Which results are given for “KSKVGWLIQLFHKKKSKVGWLIQLFHKK-NH2 (C-terminus assumed) [BPI.29]”?
**A.** LPS binding while bound to HUVEC cells (in words) [1]: retain the capacity to bind LPS while bound to HUVEC cells; fungicidal activity (in words) [2]: much lower activity levels; C. albicans: pmol required for 30 mm^2 zone [3]: >1469.25 pmol

**Q.** With “KSKVGWLIQLFHKK-NH2 (C-terminus assumed) [BPI.13]” as the substance, how does the “fungicidal activity (in words)” value [2] read?
**A.** found to have fungicidal activity

**Q.** And the “activity against L-form bacteria (in words)” value [4]?
**A.** active against these L-form bacteria

**Q.** What about the “bactericidal activity (in words)” value [5] of the same substance?
**A.** showed bactericidal activity

**Q.** And the “bactericidal activity (in words)” value [6]?
**A.** showed bactericidal activity

**Q.** What about the “C. albicans: pmol required for 30 mm^2 zone” value [3] of the same substance?
**A.** 221.63 pmol

**Q.** What about the “bactericidal activity (in words)” value [7] of the same substance?
**A.** showed bactericidal activity

**Q.** What does the source list for “KWKAQKRFLKKSKVGWLIQLFHKK-NH2 (C-terminus assumed) [BPI.30]”?
**A.** LPS binding while bound to HUVEC cells (in words) [1]: retain the capacity to bind LPS while bound to HUVEC cells; fungicidal activity (in words) [2]: much lower activity levels; bactericidal activity (in words) [5]: showed bactericidal activity; bactericidal activity (in words) [6]: showed bactericidal activity; C. albicans: pmol required for 30 mm^2 zone [3]: >1653.50 pmol; bactericidal activity (in words) [7]: showed bactericidal activity

**Q.** Which “bactericidal activity (in words)” value [8] does the source give for “KWKAQKRFLKKWKAQKRFLK-NH2 (C-terminus assumed) [BPI.7]” here?
**A.** active against antibiotic resistant Klebsiella

**Q.** What about the “heparin neutralization effect (in words)” value [9] of the same substance?
**A.** significant heparin neutralization effects

**Q.** And the “bactericidal activity (in words)” value [10]?
**A.** significant bactericidal activity

**Q.** What about the “bactericidal activity (in words)” value [11] of the same substance?
**A.** significant bactericidal activity

**Q.** For NVGLKFSISNANIKISGKWKAQKRFLK [BPI.3], which “heparin neutralization effect (in words)” value [9] is on record?
**A.** most significant heparin neutralization effects

**Q.** What about the “bactericidal activity (in words)” value [10] of the same substance?
**A.** significant anti-bacterial activity

**Q.** What about the “bactericidal activity (in words)” value [11] of the same substance?
**A.** less activity

**Q.** With IKISGKWKAQKRFLK [BPI.2] as the substance, how does the “fungicidal activity (in words)” value [2] read?
**A.** much lower activity levels

**Q.** Which “fungicidal activity (in words)” value [2] does the source give for KWKAAARFLKKWKAAARFLK [BPI.48] here?
**A.** much lower activity levels

**Q.** What about the “activity against L-form bacteria (in words)” value [4] of the same substance?
**A.** active against these L-form bacteria

**Q.** And the “bactericidal activity (in words)” value [8]?
**A.** active against antibiotic resistant Klebsiella
